Entries after “also recorded” stand apart in the source; their conditions may differ.
Legend:
[1] = solid state, relative to Forms II and III; cited from earlier work
[2] = Solubility in supercritical carbon dioxide; assay type: physicochemical; conditions: supercritical carbon dioxide as antisolvent

Compound	thermodynamic stability / transformation to other polymorphic forms [1]	solubility in supercritical carbon dioxide [2]
Cc1cn([C@H]2C=C[C@@H](CO)O2)c(=O)[nH]c1=O [Form I, 2′, 3′-didehydro-3′-deoxythymidine]	stable and shows no transformations to other polymorphic forms; also recorded: most thermodynamically stable form, with no tendency for solid state conversion to the other Forms	
Cc1cn([C@H]2C=C[C@@H](CO)O2)c(=O)[nH]c1=O [Stavudine, 2′, 3′-didehydro-3′-deoxythymidine]		practically insoluble
